In US20240409585A1, “MACROCYCLIC IMMUNOMODULATORS” (priority 2021, published 2024) one finds IC50 data, which are given here for 14 molecules.

Numbered stars: 1 amine (or outer) side, 2 acyl side, 3 side chain; on linkers, the order of the positions; unused ones are H or OH. Bridge positions count the residues as written; N and C are the ends. Square brackets hold non-standard residues; d marks the D form. Peptide text beside a SMILES is read from it. * marks the point of attachment. ξ: configuration not given here. Phe(4-COOH) = N[C@@H](Cc1ccc(C(=O)O)cc1)C(=O)O; Bip = N[C@@H](Cc1ccc(-c2ccccc2)cc1)C(=O)O; Phe(3-Cl) = N[C@@H](Cc1cccc(Cl)c1)C(=O)O; Phe(4-CN) = N#Cc1ccc(C[C@H](N)C(=O)O)cc1; Phe(3-Me) = Cc1cccc(C[C@H](N)C(=O)O)c1; X34 = O=C([C@H](Cc1ccoc1)N[*:1])[*:2]; Bta = N[C@@H](Cc1csc2ccccc12)C(=O)O; Val(3-OH) = CC(C)(O)[C@H](N)C(=O)O; 4Pal = N[C@@H](Cc1ccncc1)C(=O)O; 3Thi = N[C@@H](Cc1ccsc1)C(=O)O; Cha = N[C@@H](CC1CCCCC1)C(=O)O; Cit = NC(=O)NCCC[C@H](N)C(=O)O; Ile(3ξ) = CCC(C)[C@H](N)C(=O)O; Thr(3ξ) = CC(O)[C@H](N)C(=O)O; Dap(Me) = CNC[C@H](N)C(=O)O; Carboxymethyl = O=C(O)C*; NMeA = CN[C@@H](C)C(=O)O; Orn = NCCC[C@H](N)C(=O)O; Dab = NCC[C@H](N)C(=O)O

T1 sequence (Q15116 25-288): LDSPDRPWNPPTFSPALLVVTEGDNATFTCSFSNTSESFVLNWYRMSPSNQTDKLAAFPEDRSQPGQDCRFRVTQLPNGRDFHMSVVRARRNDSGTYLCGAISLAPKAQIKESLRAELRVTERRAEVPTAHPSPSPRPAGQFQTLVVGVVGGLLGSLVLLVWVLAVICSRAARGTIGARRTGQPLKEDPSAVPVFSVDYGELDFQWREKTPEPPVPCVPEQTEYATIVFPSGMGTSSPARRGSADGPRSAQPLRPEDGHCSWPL

One assay concerns the target T1, PE-labeled human PD-L1-Ig binding to Jurkat cell line over-expressing human PD-1 (Jurkat-PD-1) (Homo sapiens, UniProt Q15116).
T1 construct: expressed in transfected cells; host or cells: Jurkat
The experiment in a line: Jurkat-PD-1 Cell Binding High-Content Screening Assay (CBA): Method 1. The conditions noted are these: Jurkat-PD-1 cells, PE-labeled PD-L1-Ig; μM; read-out: CBA Method 1 μM.
Protocol: Phycoerythrin (PE) was covalently linked to the Ig epitope tag of human PD-L1-Ig and fluorescently-labeled PD-L1-Ig was used for binding studies with a Jurkat cell line over-expressing human PD-1 (Jurkat-PD-1). Briefly, 8×10^3 Jurkat-hPD-1 cells were seeded into 384 well plates in 20 μl of DMEM supplemented with 10% fetal calf serum. 100 nl of compound was added to cells followed by incubation at 37° C. for 2 hours. Then, 5 μl of PE-labeled PD-L1-Ig (20 nM final), diluted in DMEM supplemented with 10% fetal calf serum. […] Data was collected and processed using a Cell Insight NXT High Content Imager and associated software.
With `CCC(C)[C@@H]1NC(=O)[C@H](Cc2ccc(-c3ccccc3)cc2)NC(=O)[C@H](C(C)C)NC(=O)[C@H](Cc2c[nH]c3ccccc23)NC(=O)[C@H](CC(=O)O)NC(=O)[C@H](Cc2ccc(O)cc2)NC(=O)[C@H](Cc2ccoc2)NC(=O)CSC[C@@H](C(=O)N2CCC[C@H]2C(N)=O)NC(=O)[C@H](C(C)O)NC(=O)[C@H](C(C)(C)O)NC(=O)[C@H](CC2CCCCC2)NC(=O)[C@H](CC(N)=O)NC(=O)[C@@H](CC(C)C)NC(=O)[C@H](C)N(C)C1=O` (stereo partly drawn) [Example 5009] ({CH2CO}-[X34]YDWV[Bip][Ile(3ξ)][NMeA][dL]N[Cha][Val(3-OH)][Thr(3ξ)]CP-NH2; thioether N-14), the IC50 stood at 0.45 µM.

Still in this assay, the particulars now being: Jurkat-hPD-1 cells, PE-labeled PD-L1-Ig 20 nM final; read-out: Jurkat HPDL1 PD1 IC50 (uM) (Method 1).
As to `CC[C@H](C)[C@@H]1NC(=O)[C@H](Cc2ccc(-c3ccccc3)cc2)NC(=O)[C@H](CC(C)C)NC(=O)[C@H](Cc2c[nH]c3ccccc23)NC(=O)[C@H](CC(=O)O)NC(=O)[C@H](Cc2ccc(OCC(=O)O)cc2)NC(=O)[C@H](Cc2ccccc2)NC(=O)CSC[C@@H](C(N)=O)NC(=O)[C@H](CO)NC(=O)[C@H](C(C)C)NC(=O)[C@H](CC(C)C)NC(=O)[C@H](CC(N)=O)NC(=O)[C@@H](CC(C)C)NC(=O)[C@H](C)N(C)C1=O` [Compound 1629] ({CH2CO}-FY(Carboxymethyl)DWL[Bip]I[NMeA][dL]NLVSC-NH2; thioether N-14), the IC50 came out at 0.05 µM.

Consider `CC(C)C[C@@H]1NC(=O)[C@H](CC(N)=O)NC(=O)[C@@H](CC(C)C)NC(=O)[C@H](C)N(C)C(=O)[C@H](CCCNC(N)=O)NC(=O)[C@H](Cc2ccc(-c3ccccc3)cc2)NC(=O)[C@H](C(C)C)NC(=O)[C@H](Cc2c[nH]c3ccccc23)NC(=O)[C@H](CC(=O)O)NC(=O)[C@H](Cc2ccc(O)cc2)NC(=O)[C@H](Cc2ccccc2)NC(=O)CSC[C@@H](C(=O)N[C@@H](C)C(=O)N[C@@H](CCN)C(=O)O)NC(=O)[C@H](CO)NC(=O)[C@H](C(C)C)NC1=O` [Compound 2000] ({CH2CO}-FYDWV[Bip][Cit][NMeA][dL]NLVSCA[Dab]-OH; thioether N-14), for which the IC50 came out at 0.02 µM.

Consider `Cc1cccc(C[C@@H]2NC(=O)[C@H](CC(=O)O)NC(=O)[C@H](Cc3ccc(C(=O)O)cc3)NC(=O)[C@H](Cc3ccncc3)NC(=O)CSC[C@@H](C(=O)N[C@@H](CO)C(N)=O)NC(=O)[C@H](CCC(=O)O)NC(=O)[C@H](C(C)(C)O)NC(=O)[C@H](CC3CCCCC3)NC(=O)[C@H](CCN)NC(=O)[C@@H](CC(C)C)NC(=O)[C@H](C)N(C)C(=O)[C@H](Cc3ccc(OCC(=O)O)cc3)NC(=O)[C@H](Cc3ccc(-c4ccccc4)cc3)NC(=O)[C@H](Cc3ccc(OCC(=O)O)cc3)NC2=O)c1` [Compound 2194] ({CH2CO}-[4Pal][Phe(4-COOH)]D[Phe(3-Me)]Y(Carboxymethyl)[Bip]Y(Carboxymethyl)[NMeA][dL][Dab][Cha][Val(3-OH)]ECS-NH2; thioether N-14), for which the IC50 is 0.26 µM.

For `CC(C)C[C@@H]1NC(=O)[C@H](CCCN)NC(=O)[C@@H](CC(C)C)NC(=O)[C@H](C)N(C)C(=O)[C@H](CCCNC(=N)N)NC(=O)[C@H](Cc2ccc(-c3ccccc3)cc2)NC(=O)[C@H](C(C)C)NC(=O)[C@H](Cc2c[nH]c3ccccc23)NC(=O)[C@H](CC(=O)O)NC(=O)[C@H](Cc2cnc[nH]2)NC(=O)[C@H](Cc2ccccc2)NC(=O)CSC[C@@H](C(=O)N[C@@H](C)C(N)=O)NC(=O)[C@H]([C@@H](C)O)NC(=O)[C@H](C(C)C)NC1=O` [Compound 1129] ({CH2CO}-FHDWV[Bip]R[NMeA][dL][Orn]LVTCA-NH2; thioether N-14), the IC50 was determined as 0.09 µM.

`CC(C)C[C@@H]1NC(=O)[C@H](CCN)NC(=O)[C@@H](CC(C)C)NC(=O)[C@H](C)N(C)C(=O)[C@H](CCCN)NC(=O)[C@H](Cc2ccc(-c3ccccc3)cc2)NC(=O)[C@H](C(C)C)NC(=O)[C@H](Cc2c[nH]c3ccccc23)NC(=O)[C@H](CC(=O)O)NC(=O)[C@H](Cc2ccc(OCC(=O)O)cc2)NC(=O)[C@H](CC(N)=O)NC(=O)CSC[C@@H](C(=O)N[C@@H](C)C(N)=O)NC(=O)[C@H]([C@@H](C)O)NC(=O)[C@H](C(C)C)NC1=O` [Compound 1387] ({CH2CO}-NY(Carboxymethyl)DWV[Bip][Orn][NMeA][dL][Dab]LVTCA-NH2; thioether N-14): the IC50 was determined as 0.03 µM.

In the case of `CC(C)C[C@@H]1NC(=O)CSC[C@@H](C(=O)N[C@@H](C)C(N)=O)NC(=O)[C@H](CO)NC(=O)[C@H](C(C)C)NC(=O)[C@H](CC(C)C)NC(=O)[C@H](CCCNC(=N)N)NC(=O)[C@H](Cc2csc3ccccc23)NC(=O)[C@H](C)N(C)C(=O)[C@H](CCCNC(=N)N)NC(=O)[C@H](Cc2ccc(-c3ccccc3)cc2)NC(=O)[C@H](C(C)C)NC(=O)[C@H](Cc2c[nH]c3ccccc23)NC(=O)[C@H](CC(=O)O)NC(=O)[C@H](Cc2ccc(O)cc2)NC1=O` [Compound 1041] ({CH2CO}-LYDWV[Bip]R[NMeA][Bta]RLVSCA-NH2; thioether N-14), the IC50 is 0.31 µM.

Consider `CC(C)C[C@@H]1NC(=O)[C@H](CCN)NC(=O)[C@@H](CC(C)C)NC(=O)[C@H](C)N(C)C(=O)[C@H](C(C)C)NC(=O)[C@H](Cc2ccc(-c3ccccc3)cc2)NC(=O)[C@H](C(C)C)NC(=O)[C@H](Cc2cccc(Cl)c2)NC(=O)[C@H](CC(=O)O)NC(=O)[C@H](Cc2ccc(O)cc2)NC(=O)[C@H](CC(N)=O)NC(=O)CSC[C@@H](C(=O)N[C@@H](C)C(N)=O)NC(=O)[C@H]([C@@H](C)O)NC(=O)[C@H](C(C)C)NC1=O` [Compound 1265] ({CH2CO}-NYD[Phe(3-Cl)]V[Bip]V[NMeA][dL][Dab]LVTCA-NH2; thioether N-14), for which the IC50 is 0.01 µM.

For `CC[C@H](C)[C@@H]1NC(=O)[C@H](Cc2ccc(-c3ccccc3)cc2)NC(=O)[C@H](C(C)C)NC(=O)[C@H](Cc2cccc(C)c2)NC(=O)[C@H](CC(=O)O)NC(=O)[C@H](Cc2ccc(O)cc2)NC(=O)[C@H](CC(N)=O)NC(=O)CSC[C@@H](C(=O)N[C@@H](CCN)C(N)=O)NC(=O)[C@H](CCC(=O)O)NC(=O)[C@H](C(C)(C)O)NC(=O)[C@H](CC2CCCCC2)NC(=O)[C@H](CCN)NC(=O)[C@@H](CC(C)C)NC(=O)[C@H](C)N(C)C1=O` [Compound 1695] ({CH2CO}-NYD[Phe(3-Me)]V[Bip]I[NMeA][dL][Dab][Cha][Val(3-OH)]EC[Dab]-NH2; thioether N-14), the IC50 was 0.01 µM.

For the molecule `CCC(C)[C@@H]1NC(=O)[C@H](Cc2ccc(-c3ccccc3)cc2)NC(=O)[C@H](C(C)C)NC(=O)[C@H](Cc2cccc(C)c2)NC(=O)[C@H](CC(=O)O)NC(=O)[C@H](Cc2ccc(OCC(=O)O)cc2)NC(=O)[C@H](Cc2ccncc2)NC(=O)CSC[C@@H](C(=O)N[C@@H](CO)C(=O)O)NC(=O)[C@H](CO)NC(=O)[C@H](C(C)C)NC(=O)[C@H](CC2CCCCC2)NC(=O)[C@H](CCN)NC(=O)[C@@H](CC(C)C)NC(=O)[C@H](C)N(C)C1=O` (stereo partly drawn) [Compound 2234] ({CH2CO}-[4Pal]Y(Carboxymethyl)D[Phe(3-Me)]V[Bip][Ile(3ξ)][NMeA][dL][Dab][Cha]VSCS-OH; thioether N-14), the IC50 was 0.02 µM.

As to `CC(C)C[C@@H]1NC(=O)[C@H](CCCNC(=N)N)NC(=O)[C@@H](CC(C)C)NC(=O)[C@H](C)N(C)C(=O)[C@H](CCCNC(=N)N)NC(=O)[C@H](Cc2ccc(-c3ccccc3)cc2)NC(=O)[C@H](C(C)C)NC(=O)[C@H](Cc2c[nH]c3ccccc23)NC(=O)[C@H](CC(=O)O)NC(=O)[C@H](Cc2ccc(C#N)cc2)NC(=O)[C@H](Cc2ccccc2)NC(=O)CSC[C@@H](C(=O)N[C@@H](C)C(N)=O)NC(=O)[C@H]([C@@H](C)O)NC(=O)[C@H](C(C)C)NC1=O` [Compound 1100] ({CH2CO}-F[Phe(4-CN)]DWV[Bip]R[NMeA][dL]RLVTCA-NH2; thioether N-14), the IC50 was determined as 0.53 µM.

Regarding `CC(C)C[C@@H]1NC(=O)[C@H](CCN)NC(=O)[C@@H](CC(C)C)NC(=O)[C@H](C)N(C)C(=O)[C@H](CCC(=O)O)NC(=O)[C@H](Cc2ccc(-c3ccccc3)cc2)NC(=O)[C@H](C(C)C)NC(=O)[C@H](Cc2c[nH]c3ccccc23)NC(=O)[C@H](CC(N)=O)NC(=O)[C@H](Cc2ccc(O)cc2)NC(=O)[C@H](Cc2ccncc2)NC(=O)CSC[C@@H](C(=O)N[C@@H](C)C(N)=O)NC(=O)[C@H](C(C)O)NC(=O)[C@H](C(C)C)NC1=O` (stereo partly drawn) [Compound 2056] ({CH2CO}-[4Pal]YNWV[Bip]E[NMeA][dL][Dab]LV[Thr(3ξ)]CA-NH2; thioether N-14), the IC50 is 0.04 µM.

As for `CCC(C)[C@@H]1NC(=O)[C@H](Cc2ccc(-c3ccccc3)cc2)NC(=O)[C@H](CC(C)C)NC(=O)[C@H](Cc2c[nH]c3ccccc23)NC(=O)[C@H](CC(=O)O)NC(=O)[C@H](Cc2ccc(C(=O)O)cc2)NC(=O)[C@H](Cc2ccc(OCC(=O)O)cc2)NC(=O)CSC[C@@H](C(=O)N[C@@H](C)C(N)=O)NC(=O)[C@H](CO)NC(=O)[C@H](C(C)C)NC(=O)[C@H](CC2CCCCC2)NC(=O)[C@H](CNC)NC(=O)[C@@H](CC(C)C)NC(=O)[C@H](C)N(C)C1=O` (stereo partly drawn) [Compound 2068] ({CH2CO}-Y(Carboxymethyl)[Phe(4-COOH)]DWL[Bip][Ile(3ξ)][NMeA][dL][Dap(Me)][Cha]VSCA-NH2; thioether N-14), the IC50 was 0.03 µM.

`Cc1cccc(C[C@@H]2NC(=O)[C@H](CC(=O)O)NC(=O)[C@H](Cc3ccc(OCC(=O)O)cc3)NC(=O)[C@H](Cc3ccsc3)NC(=O)CSC[C@@H](C(=O)N[C@@H](CCN)C(N)=O)NC(=O)[C@H](C(C)O)NC(=O)[C@H](C(C)C)NC(=O)[C@H](CC3CCCCC3)NC(=O)[C@H](CCN)NC(=O)[C@@H](CC(C)C)NC(=O)[C@H](C)N(C)C(=O)[C@H](Cc3ccc(OCC(=O)O)cc3)NC(=O)[C@H](Cc3ccc(-c4ccccc4)cc3)NC(=O)[C@H](Cc3ccc(C(=O)O)cc3)NC2=O)c1` (stereo partly drawn) [Compound 2128] ({CH2CO}-[3Thi]Y(Carboxymethyl)D[Phe(3-Me)][Phe(4-COOH)][Bip]Y(Carboxymethyl)[NMeA][dL][Dab][Cha]V[Thr(3ξ)]C[Dab]-NH2; thioether N-14): the IC50 was found to be 0.01 µM.
